Measurements published in paper PMC11510563 (Pharmaceutics, 2024).

Target: T1, oxytocin receptors (Homo sapiens, UniProt P30559)
T1 construct: endogenous in cells; host or cells: Hs 578T breast cancer cells
T1 sequence (P30559 1-389): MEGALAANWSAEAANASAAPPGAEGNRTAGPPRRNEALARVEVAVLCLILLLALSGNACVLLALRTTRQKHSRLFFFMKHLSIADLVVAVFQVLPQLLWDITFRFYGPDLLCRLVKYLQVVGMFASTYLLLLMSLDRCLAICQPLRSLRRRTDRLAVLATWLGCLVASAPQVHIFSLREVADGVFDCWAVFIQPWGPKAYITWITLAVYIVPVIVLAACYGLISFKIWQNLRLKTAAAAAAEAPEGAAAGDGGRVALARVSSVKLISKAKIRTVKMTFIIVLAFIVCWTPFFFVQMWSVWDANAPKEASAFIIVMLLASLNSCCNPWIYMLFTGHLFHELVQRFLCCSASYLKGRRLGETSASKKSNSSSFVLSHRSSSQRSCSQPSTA
Assay: calcium fluorimetry reporter assay in Hs 578T cells
Format: cell-based
Details: Fluo-4, L-368,899 0.1-10 μM, SR 49059 0.1 μM, tolvaptan 1 nM
Protocol: Twenty-four hours prior to use, Hs 578T cells were seeded in black 96-well plates (80,000 cells in 100 μL of supplemented DMEM per well). On the test day, changes in intracellular calcium ([Ca^2+]i) were measured using a Fluo-4 no wash calcium assay kit (F36206; Thermo Fisher Scientific). Briefly, medium was aspirated and replaced with 100 μL of 1× dye loading solution (Fluo-4 NW mix in 1× HBSS) containing 20 mM 4-(2-hydroxyethyl)-1piperazineethanesulfonic acid (HEPES, Sigma-Aldrich) and 2.5 mM probenecid, which prevents the active transport of Fluo-4 out of the cells. Cells were incubated for 40 min, and then mean fluorescence across each well was measured every 1.6 s for 90 s using a Flexstation 3 (Molecular Devices, Wokingham, UK) with excitation at 485 nm and emission at 525 nm.

Row | SMILES | sensitivity of oxytocin-induced [Ca^2+]i increases to the antagonist
1 | Cc1ccccc1N1CCN(S(=O)(=O)C[C@]23CC[C@H](C[C@@H]2NC(=O)[C@@H](N)CCS(C)(=O)=O)C3(C)C)CC1 [L-368,899] | sensitive to blockade
2 | COc1ccc(S(=O)(=O)N2c3ccc(Cl)cc3[C@](O)(c3ccccc3Cl)[C@@H]2C(=O)N2CCC[C@H]2C(N)=O)cc1OC [SR 49059] | not sensitive
3 | Cc1ccccc1C(=O)Nc1ccc(C(=O)N2CCCC(O)c3cc(Cl)ccc32)c(C)c1 (stereo not drawn) [tolvaptan] | not sensitive
